Publication PMC7160362, “A Polyamine-Based Dinitro-Naphthalimide Conjugate as Substrates for Polyamine Transporters Preferentially Accumulates in Cancer Cells and Minimizes Side Effects in vitro and in vivo” (Frontiers in Chemistry, 2020)
Like-named read-outs stand apart in the source and are kept apart here.

Columns and labels:
[1] = test system: MCF-7 cells (breast carcinoma); assay: MTT cytotoxicity assay; type: cell-based; conditions: MTT, 48 h
Description: (§1) We incubated hepatic carcinoma (Snu-368 and Snu-739), breast carcinoma (MDA-MB-231 and MCF-7), cisplatin-sensitive lung cancer cells A549, and cisplatin-resistant lung cancer cells A549cisR in 96-well plates in a 5% CO2 atmosphere at 37°C for 24 h (5,000 cells/well). After adding drugs in freshly prepared culture medium (100 μl) and incubating for another 48 h, we added 20 μl MTT (5 mg/ml) and incubated for another 3 h. At last, after the medium was removed, 150 μl DMSO was added. By using a Bio-Rad 680 microplate reader, the absorbance was measured at 570 nm and the IC50 values were calculated using the GraphPad Prism software based on three parallel experiments.
(§2) In vitro assays were firstly conducted to evaluate the inhibitory effect of polyamine-based naphthalimide conjugates 5a-5c, 7a-7b, and 11a-11b on six cancer cell lines, namely, Snu-368 and Sun-739 (hepatoma cell line), MCF-7 (breast carcinoma), MDA-MB-231 (triple negative breast cancer), cisplatin-sensitive lung cancer A549, and resistant A549cisR cells by using traditional MTT tests. Two classic antitumor agents in clinic trials, amonafide and cisplatin, were chosen as the reference drugs (Table 1). The preliminary structure–activity relationship (SAR) can be obtained from the in vitro biological results.

[2] = test system: Snu-368 cells (hepatic carcinoma); assay: MTT cytotoxicity assay; type: cell-based; conditions: MTT, 48 h
Description: as §1, §2

[3] = test system: cisplatin-resistant lung cancer cells A549cisR; assay: MTT cytotoxicity assay; type: cell-based; conditions: for IC50: MTT, 48 h; for RF (resistance factor): IC50 in A549cisR cells/IC50 in A549 cells
Description: as §1, §2

[4] = test system: cisplatin-sensitive lung cancer cells A549; assay: MTT cytotoxicity assay; type: cell-based; conditions: MTT, 48 h
Description: as §1, §2

[5] = test system: MDA-MB-231 cells (triple negative breast cancer); assay: MTT cytotoxicity assay; type: cell-based; conditions: MTT, 48 h
Description: as §1, §2

[6] = test system: Snu-739 cells (hepatic carcinoma); assay: MTT cytotoxicity assay; type: cell-based; conditions: MTT, 48 h
Description: as §1, §2

HCC xenografts = assay: In vivo antitumor assay, HCC xenografts; conditions: 5 mg/kg, tail vein, once every day for 7 days
Source text: Healthy BALB/c mice (Cat. SCXK 2016-0006, Beijing, China) aged 5 weeks were used for the determination of anticancer activity. We obtained BALB/c mice from the Laboratory Animal Center, Academy of Military Medical Science. They were raised in compliance with the Guide for the Care and Use of Laboratory Animals. The weight of healthy BALB/c mice is 18–22 g.
We firstly injected HCC cells with 1 × 10^6 cells per mouse to determine the anticancer activity. After a week, the tumors increased to 80–120 mm^3. The mice were divided into four groups for 5c (3 mg/kg), 5c (5 mg/kg), the positive control amonafide (5 mg/kg), or the negative control physiological saline. We injected 5c or amonafide via the tail vein every day for a total of seven treatments. Body weight was determined every day. And then the mice were sacrificed after 7 days. The tumor tissues were weighed and the inhibition rate [((average tumor weight of negative control group – average tumor weight of the drug treated or positive control group)/average tumor weight of control group) × 100] was calculated. The organ index [(organ weight/body weight) × 100%] was also counted including heart, liver, kidney, lung, and spleen at the last day. Both 5c and amonafide were dissolved in glucose injection. And they were used immediately after preparation.
The highest FI levels in Snu-739 also indicate a significant therapy for HCC. Therefore, HCC animal models were used to test the in vivo antitumor activities. Mice bearing HCC xenografts were treated with 5c (3 mg/kg), 5c (5 mg/kg), the positive control amonafide (5 mg/kg), and normal saline (negative control) once every day for 7 days by tail vein (Figure 3).

[7] = test system: HL-7702 (normal liver cell); assay: MTT cytotoxicity on matched normal cells; type: cell-based; conditions: for SI (selectivity index), range over Snu-368 and Snu-739: HL-7702 versus Snu-368 and Snu-739; for IC50: normal liver cell, read-out: IC50 HL-7702
Description: as §1
The selectivity for cancer cells over normal healthy cells is important for ideal anticancer agents, thereby mitigating undesired toxic side effects associated with chemotherapy. The selectivity of polyamine-based dinitro-naphthalimide conjugates 5a-5c was evaluated by Snu-368 and Snu-739 (hepatic carcinoma), and the matched normal cells HL-7702 (normal liver cell). Moreover, dinitro-naphthalimide conjugates 5a-5c (SI 1.94–7.47) show lower cytotoxicity in normal cells.

Row | SMILES | IC50 ([1]; Homo sapiens, MCF7) [µM] | IC50 [2] [µM] | IC50 [3] [µM] | IC50 ([4]; Homo sapiens, A549) [µM] | IC50 ([5]; Homo sapiens, MDA-MB-231) [µM] | IC50 ([6]; SNU-739) [µM] | RF (resistance factor) [3] | tumor suppression (inhibition rate, tumor weight) (HCC xenografts) [%] | SI (selectivity index) IC50 in HL-7702/IC50 in Snu-368 [7] | SI (selectivity index) IC50 in HL-7702/IC50 in Snu-739 [7] | SI (selectivity index), range over Snu-368 and Snu-739 [7] | IC50 ([7]; Homo sapiens, L02) [µM] | IC50 [1] [µM] | IC50 [4] [µM] | IC50 [5] [µM] | IC50 [6] [µM] | IC50 [7] [µM]
1 | NCCCCNCCCCN1C(=O)c2cc(N)cc3cc(N)cc(c23)C1=O [7b] | > 30 | > 30 | 17.3 ± 1.78 | > 30 | > 30 | > 30 | – | – | – | – | – | – | – | – | – | – | –
2 | NCCCNCCCNCCCN1C(=O)c2cc(N)cc3cc(N)cc(c23)C1=O [11a] | 14.8 ± 1.45 | > 50 | 16.3 ± 1.69 | 28.3 ± 2.85 | 26 ± 2.56 | 9.69 ± 0.98 | – | – | – | – | – | – | – | – | – | – | –
3 | NCCCNCCCCNCCCN1C(=O)c2cc(N)cc3cc(N)cc(c23)C1=O [11b] | 25.9 ± 2.56 | > 30 | 15.8 ± 1.58 | > 30 | > 30 | 23.2 ± 2.36 | – | – | – | – | – | – | – | – | – | – | –
4 | CN(C)CCN1C(=O)c2cccc3cc(N)cc(c23)C1=O [Amonafide, amonafide, reference compound] | 5.89 ± 0.56 | 14 ± 1.78 | 11 ± 1.02 | 6.89 ± 0.68 | 14.9 ± 1.75 | 13 ± 1.56 | 1.59 | 53.27 | 0.83 | 0.89 | 0.83–0.89 | 11.6 ± 1.36 | – | – | – | – | –
5 | N.N.[Cl][Pt][Cl] [Cisplatin, cisplatin, reference compound] | – | 16.4 ± 1.26 | 40.4 ± 4.36 | – | – | – | 3.67 | – | 0.53 | 0.86 | 0.53–0.86 | – | 9.6 ± 0.6 | 11 ± 0.15 | 16 ± 1.59 | 10 ± 1.23 | 8.6 ± 0.2
